Test system: human colorectal cancer cell line COLO-320DM
Experiment: MTT assay, combination of test compound and other anticancer agents
Type: cell-based
Details: Examples 9 to 14, COLO-320DM: test compound added at the concentration shown in FIGS. 9 to 14 to irinotecan (SN-38); survival with only irinotecan = 100%
Method: The ratio of residual cells in treatment of the human colorectal cancer cell line COLO-320DM with a combination of the compound prepared in each Compound Example (test compound or tankyrase inhibitory compound) and each of the anticancer agents was measured to evaluate the cell killing effect of the combination on the human colorectal cancer cell line COLO-320DM. The combinations of test compounds and anticancer agents are as follows.
(Example 8): combination of the compound prepared in Compound Example 5 and temozolomide, melphalan, gemcitabine, cytarabine (Ara-C), fluorouracil (5-FU), pemetrexed, mercaptopurine, methotrexate, irinotecan (SN-38), etoposide (VP-16), actinomycin D, daunorubicin, doxorubicin, bleomycin, mitoxantrone, oxaliplatin, carboplatin or cisplatin (Example 9): combination of the compound prepared in Compound Example 110 (G007-LK) and irinotecan (SN-38) (Example 10): combination of the compound prepared in Compound Example 11 and irinotecan (SN-38) (Example 11): combination of the compound prepared in Compound Example 19 and irinotecan (SN-38) (Example 12): combination of the compound prepared in Compound Example 101 and irinotecan (SN-38) (Example 13): combination of the compound prepared in Compound Example 1 and irinotecan (SN-38) (Example 14): combination of the compound prepared in Compound Example 113 and irinotecan (SN-38)
Commercially available compounds were used for temozolomide (manufactured by Sigma-Aldric), melphalan (manufactured by Signa-Aldrich), gemcitabine (Gemcitabine hydrochloride; manufactured by Sigma-Aldric), cytarabine (Cytosine β-D-arabinofuranoside (Ara-C); manufactured by Sigma-Aldrich), fluorouracil (5-Fluorouracil (5-FU); manufactured by Sigma-Aldrich), pemetrexed (Pemetrexed disodium heptahydrate; manufactured by Sigma-Aldrich), mercaptopurine (6-Mercaptopurine monohydrate; manufactured by Sigma-Aldrich), methotrexate (Methotrexate hydrate; manufactured by Sigma-Aldrich), irinotecan (7-Ethyl-10-hydroxycamptothecin (SN-38); manufactured by Sigma-Aldrich), etoposide (Etoposide (VP-16); manufactured by Enzo Life Sciences, Inc.), actinomycin D (manufactured by nacalai tesque), daunorubicin (Daunorubicin hydrochloride; Calbiochem), doxorubicin (Doxorubicin hydrochloride; manufactured by Sigma-Aldrich), bleomycin (Bleomycin sulfate; manufactured by Enzo Life Sciences, Inc.), mitoxantrone (Mitoxantrone dihydrochloride; manufactured by Sigma-Aldrich), oxaliplatin (manufactured by Sigma-Aldrich), carboplatin (manufactured by Sigma-Aldrich) and cisplatin (manufactured by Enzo Life Sciences, Inc.).
First, the human colorectal cancer cell line COLO-320DM was suspended in RPMI1640 medium (hereinafter, medium) containing inactivated 10% fetal bovine serum, and the cells were seeded in a 96-well microplate at 350 cells (75 μL) per well. The cells were subjected to stationary culture overnight in a CO2 incubator at 37° C. Thereafter, in Example 8, a medium (25 μL) containing a combination of the compound prepared in Compound Example 5 and each of the anticancer agents was added in triplicate in such a manner that the final concentrations of the test compound (compound prepared in Compound Example 5) were 0 nM or 30 nM and that the final concentrations of each anticancer agent were those shown in Table 14. In Examples 9 to 14, a medium (25 μL) containing a combination of the compound prepared in each of Compound Examples and each of the anticancer agents was added in triplicate in such a manner that the final concentrations of the test compound were 0 nM or those shown in FIGS. 9 to 14. As a control, 25 μL of a medium containing only dimethyl sulfoxide (DMSO) which is a solvent was added. […]

| Structure (SMILES) | cell survival rate |
| --- | --- |
| CCOc1ccc(-c2n[nH]nc2[C@H]2NC(=O)c3cccc(C)c3N2)cc1 [Compound Example 101, (2R)-2-[5-(4-Ethoxyphenyl)-2H-1,2,3-triazol-4-yl]-8-methyl-2,3-dihydro-1H-quinazolin-4-one] | about 50% |
| COc1ccc(-c2c[nH]nc2C2NC(=O)c3cccc(C)c3N2)cc1 (centres unmarked) [Compound Example 113, 2-[4-(4-Methoxyphenyl)-1H-pyrazol-3-yl]-8-methyl-2,3-dihydro-1H-quinazolin-4-one] | about 50% |

— patent US20210060016A1, “ANTICANCER AGENT” (JAPANESE FOUNDATION FOR CANCER RESEARCH, priority 2017, published 2021)
